Experimental findings from US20230263944A1, “DUAL FUNCTION SURFACE FOR CELL CAPTURE AND SPREADING” (THE ROYAL INSTITUTION FOR THE ADVANCEMENT OF …, priority 2020, published 2023) are described below.

One data set deals with ECFCs. Put plainly: Surface endothelialization of functionalized CoCr vascular stents in a perfusion model. Type of data set: cell-based, human. The note with it: flow. The text has this: (A) Representative fluorescence images of ECFCs on the surface of modified stents (after plasma amination) and an unmodified control after 2 and half hours of circulating ECFCs over the stents in a perfusion model at 1 dyn/cm^2 wall shear stress. ECFCs were stained for F-actin (red) and nuclei (blue). Phase contrast images show the corresponding stent structure. Flow direction was from right to left. (B) Quantification of cell adhesion parameters from the fluorescence images. *P<0.05 and **P<0.01 with N=3 experimental replicas from different ECFC donors.
As encompassed herein, the modifications can be applied to different aminated substrates—as shown on polystyrene (FIGS. 4-13) and on cobalt-chromium (CoCr) (FIGS. 16-18). The modifications can be applied to different geometries while retaining the benefits observed on flat substrates.

In data set [1] the test system is endothelial colony forming cells (ECFCs). Put plainly: ECFC seeding on modified polystyrene surfaces under static conditions. The data set is classed as cell-based, human. The following applies: vs unmodified aminated polystyrene surfaces. An excerpt:
Cells were stained for F-actin (red) and DAPI (blue). Images were used to quantify cell number and surface area per cell. Unmodified=aminated polystyrene surfaces without further modifications. **p<0.01, *p<0.05 with N=3 experimental replicas.
To test whether the bifunctional surfaces can impart two significant effects on cells of interests, ECFCs derived from human peripheral blood were either seeded on the modified surfaces under static conditions or flown over the surfaces in a perfusion loop under 1 dyn/cm^2 wall shear stress. […] The two molecules were mixed together at the center point concentrations of the previously described surface model.

The nature of data set [2]: ELISA of functionalized CoCr surfaces after gamma-irradiation. The data set is classed as physicochemical. The following applies: two one-side t-test, 15% difference considered practically equivalent. The text has this: (A) Principle of the ELISA method used to detect immobilized antibodies via horseradish peroxidase (HRP) conjugated secondary antibodies. (B) ELISA method used to detect immobilized RGD-TAMRA peptides via primary anti rhodamine antibodies followed by HRP conjugated secondary antibodies.

The nature of data set [3]: ELISA on L605 CoCr substrates modified with peptides and antibodies. The following applies: dark, ambient conditions, covalent peptide grafting vs adsorption. As to the method: (A) Without S-SMPB, peptides adsorb onto L605 which can change antibody orientation on surfaces. (B) 12-well plate with CoCr samples at the end of the ELISA. For custom ELISAs, RGD-TAMRA was detected using anti Rhodamine followed by HRP-labelled secondary antibodies. Anti CD309 was detected using an HRP-labelled F(ab′)2 secondary antibody on a separate set of samples. HRP activity was quantified by measuring A450 of supernatant collected after 30 min incubation with TMB substrate+addition of stop solution. […] N=3 L605 samples except G-I (N=9 images).
For orientation: ELISA stands for enzyme-linked immunosorbent assay.

A further data set deals with HUVEC cells. In words: HUVEC seeding on Protein G / anti-CD144 / RGD-TAMRA polystyrene well plate. The following applies: 3 h shaker incubation; for HUVEC attachment to the surface: serum free medium. Type of data set: cell-based, human. As to the method:
A 6 well plate was seeded with the following conditions in each well (W1-W6):
The functionalized surface was rinsed with phosphate buffer saline (PBS) and […]. HUVEC cells were used and were seeded in each well in serum free medium at a concentration of 19,000 cells/mL. The plate was incubated for 3 hours on an incubation shaker then imaged under the microscope. The plate were left to incubate for another 21 h (total 24 h) at 37° C. 5% CO2 and imaged again.

Regarding CGK(PEG3-TAMRA)GGRGDS-NH2 [RGD-TAMRA], in the data set with ECFCs, the “cell spreading on CoCr stents” value was “higher cell spreading”. For the same substance, the “surface area of the ECFCs (cell spreading)” value in data set [1] is “significantly higher than the controls”; in data set [1] (listed as RGD peptides), “increase cell spreading”. In addition, the “ELISA signal after gamma-irradiation” value in data set [2] was “practically equivalent”. Further, in data set [3], the “ELISA signal after 28d storage” value is “significantly higher”. Besides, in the data set on HUVEC cells, the “HUVEC attachment to the surface” value is “strongly attach”.

Consider collagen, for which, in the data set on HUVEC cells, the HUVEC spreading result is given as “spread more” and the “HUVEC attachment to the surface” value was “strongly attach”.
